In patent US20080293699A1, “Inhibitors of thapsigargin-induced cell death” (priority 2007, published 2008):
Entries after “also recorded” stand apart in the source; their conditions may differ. Read-outs that look alike come from different tables or passages of the source.

Tests used:
CSM14.1 cells = experiment: Primary HTS assay: ATP content (ATPlite) of undifferentiated CSM14.1 cells challenged with thapsigargin; type: cell-based, rat; conditions: for IC50: thapsigargin-induced death of undifferentiated CSM14.1, ATP content
Text: For convenience, and because transient reductions in temperature that might be associated with large screening experiments could restore Large T activity, we elected to develop our HTS using undifferentiated CSM14.1 cells, with the plan to then confirm hits using differentiated cells. For monitoring cell death, we used a commercially available bioluminescence reagent that determines intracellular ATP content, without requirement for complicated cell processing steps (ATPlite, Perkin Elmer). Thus, ATP was used as a surrogate indicator of cell survival for the primary assay.
Undifferentiated or differentiated CSM14.1 cells were plated at a density of 3,000 cells/well in 40 μL DMEM medium (containing 10% serum, 1 mM L-glutamine, and antibiotics) in 96 well flat-bottom microtiter plates composed of polystrene (Greiner Bio One, polystyrene, white wall, flat bottom, lumitrac, high binding). After overnight incubation at 32° C., DMSO (0.5% v/v) or 100 uM Salubrinal (Sal) in DMSO was delivered. After 2 hrs, 5 uL of a stock solution of 150 uM TG in DMEM medium containing 0.75% (v:v) DMSO to achieve a final concentration of approximately 15 uM. After culturing for 24 hrs, cellular ATP content was measured by addition of 20 uL per well of ATPlite solution (Perkin-Elmer), and then the plates were incubated for three minutes at room temperature, before reading with a Microplate Luminometer (BD Pharmingen Moonlight model 3096).
To determine the reproducibility of the ATP content assay, we prepared a 96-well plate in which half the wells received TG plus DMSO (assay minimum) and half received TG plus Salubrinal (assay maximum), then performed the ATP content studies using undifferentiated CSM14.1 cells (FIG. 6). CSM14.1 cells were cultured overnight at 3,000 cells per well in 96-well flat-bottom plates, then either DMSO (0.5% final concentration) or Salubrinal (100 μM) in DMSO (0.5% final concentration) was added to half the well (48 each). After two hrs, TG was added to all wells (15 μM final). Cells were cultured for 24 hrs, then the ATP content was measured using the ATPlite luminogenic assay. We then adapted this assay to the high-throughput environment, using a Biomex™ FX liquid handler for automated dispensing of assay components into microwells of 96-well plates. First, undifferentiated CSM14.1 cells were grown at 32° C. in DMEM medium supplemented with 10% fetal bovine serum (FBS), 1% penicillin/streptomycin, and 1% L-glutamine in 150 mm×25 mm polystyrene culture dishes to produce approximately 3×10^6 cells. Second, CSM14.1 cells were recovered from cultures by trypsinization when at 80-90% confluence, and suspended at 7.5×10^4 cells/mL in DMEM medium containing 2% FBS, 1 mM L-glutamine, and antibiotics 100 IU penicillin 100 μg/ml streptomycin. Third, the cell suspension was then delivered at 40 μL per well of 96-well plastic microtiter plates (Greiner Bio One, polystyrene, white wall, flat bottom, lumitrac, high binding, cat #655074), and the plates were cultured overnight at 32° C. in a humidified atmosphere in 95% air: 5% CO2. Fourth, using the automated liquid handler, 5 μL of test compounds in 10% DMSO were added to wells in columns 2-11 of the 96-well plates (leaving columns 1 and 12 intact) to achieve an approximate final concentration of 15 μg/mL test compound and a final concentration of 1% DMSO. Fifth, 5 μL of 1 mM Salubrinal in a solution of 10% DMSO:90% DMEM was added to wells of column 1/rows A-D of each plate, while 5 μL of 10% DMSO:90% DMEM solution was added to wells corresponding to column 1/rows E-H and to all wells in column 12. Sixth, the plates were returned to culture.

[1] = system: ASK1 (ser 967, ser 83, thr 845); experiment: Phosphorylation of ASK1 sites in ASK1-transfected 293T cells (immunoblotting); type: cell-based; conditions: ASK1-transfected 293T; for Phosphorylation of ASK1 at ser 967: 100 μM compound, two hours; for Phosphorylation of ASK1 at ser 83 and thr 845: up to 100 μM
Method: Phosphorylation of ASK1 at various sites was inspected. 293T cells were transfected with pcDNA-ASK1-HA. One day later, cells were incubated with DMSO (0.4%) or 100 μM compound 6239507 (#1) for two hours. Cell extracts were prepared using lysis buffer and were subjected to immunoblotting using anti-phospho ASK1 antibodies or anti HA antibody as indicated (A). The relative density of each phosphorylated ASK band was calculated by imageJ software (B). In (C), compounds from (A) were compared in activity against thapsigargin-induced cell death. […] (D) 293T cells were transfected with pcDNA-ASK1-HA and pEBG-GST-14-3-3. One day later cells were incubated with DMSO (0.4%) or 100 μM of the indicated compound for two hours. Then cells were treated with thapsigargin (20 μM) for the indicated time. Cell extracts were prepared using lysis buffer, and 14-3-3 proteins were immunoprecipitated with […] sepharose beads. ASK1 protein binding with 14-3-3 was visualized by immunoblotting using anti-HA antibody. Anti-phospho ASK1 (ser967) antibody was used to detect phosphorylation of ASK1 at each time point.
Thus, while not directly inhibiting ASK1 kinase activity, these events are predicted to reduce ASK1 in vivo kinase activity. It is possible that compound 5962123 inhibits a protein phosphatase that regulates phosphorylation of Ser967.
Suppression of thapsigargin-induced phosphorylation of p38MAPK was also measured by a quantitative ELISA-methods, with IC50 for p38MAPK phosphorylation estimated at <5 μM. In contrast, thapsigargin-induced expression of CHOP, expression of ATF4, proteolytic processing of ATF6, phosphorylation of eIF2a (Ser 51), auto-phosphorylation of Ire1a or auto-phosphorylation of ASK1 were not inhibited directly by CID-2878746 at concentrations up to 50 μM tested by in vitro kinase assay using p32-γ-ATP substrate. […] Thapsigargin-induced reductions in phosphorylation of ASK1 at the serine 967 site in ASK1 transfected 293T cells are inhibited by compound 5962123 at concentrations of 50-100 μM, as determined by immunoblotting using anti-phospho-specific (ser 967) antibody, but thapsigargin-induced changes in phosphorylation of ASK1 at ser 83 and thr 845 are not modulated by compound 5962123 at concentrations as high as 100 μM in ASK1-transfected HEK293T cells.
Experiments were also performed to determine whether compound 6239507 enhances phosphorylation of ASK1 at Ser 967 before and after ER stress induction (i.e., thapsigargin treatment). 293T cells were transfected with pcDNA-ASK1-HA. One day later, cells were incubated with DMSO (0.4%) or 100 μM compound 6239507 (#1) for two hours. Then cells were treated with thapsigargin (20 μM) for the indicated times. Cell extracts were prepared by lysis buffer and were subjected to immunoblotting with anti-phospho ASK1 Ser967 antibody or anti HA antibody. The relative density of phosphor ser967 bands were calculated by imageJ software (mean ±SD).
The ser 967 site of ASK1 is known to down-regulate ASK1 activity by phosphorylation (Goldman et al., J. Biol. Chem. 279:10442-10449, 2004) via 14-3-3 binding. […] 293T cells were transfected with pcDNA-ASK1-HA. One day later, cells were incubated with DMSO (0.4%) or 100 μM compound 6239507 (#1) for two hours. Cell extracts were prepared using lysis buffer and were subjected to immunoblotting using anti-phospho ASK1 antibodies or anti HA antibody as indicated. The relative density of each phosphorylated ASK band was calculated by imageJ software. The compounds were compared in activity against thapsigargin-induced cell death. 293T cells were transfected with pcDNA-ASK1-HA and pEBG-GST-14-3-3. One day later cells were incubated with DMSO (0.4%) or 100 μM of the indicated compound for two hours. Then cells were treated with thapsigargin (20 μM) for the indicated time. Cell extracts were prepared using lysis buffer, and 14-3-3 proteins were immunoprecipitated with […] sepharose beads. […]

phospho-c-Jun = experiment: Immunoblotting of thapsigargin-induced c-Jun phosphorylation in CSM14.1 cells; type: cell-based, rat; conditions: immunoblotting with phospho-specific antibody, 10 μM, 25 μM hits
Text: After confirming the pathway selectivity of compounds, additional downstream assays can be performed to map the specific signal transduction pathway inhibited by the compounds. In this regard, various antibody reagents are commercially available for assessing the status of the three major pathways known to be activated by ER stress: (1) PERK, (2) Ire1, and (3) ATF6 (Xu et al., J. Clinical Invest., 115:2656-2664, 2005). Immunoblotting experiments can be performed to assess the expression or phosphorylation (using phospho-specific antibodies) of marker proteins in these pathways. […] CSM 14.1 cells were cultured with DMSO or with 25 μM of hit compounds for two hours, followed by treatment of thapsigargin (15 μM). Cell lysates were prepared and analyzed by SDS-PAGE/immunoblotting using antibodies specific for phospho-c-Jun, phospho-eIF2α, phospho-p38 MAPK, and tubulin (a loading control). CSM14.1 cells were cultured with either DMSO or one of the active compounds at 1, 5, and 10 μM, followed two hours later by 15 μM TG. After two hrs, cell lysates were prepared, normalized for protein content, and either analyzed by SDS-PAGE/immunoblotting using anti-p38-MAPK pan-reactive antibody or phospho-specific antibody with ECL-based detection, followed by densitometry analysis of x-ray films, normalizing phosphor-p38 MAPK relative to total p38 MAPK, or analyzed using a meso-scale instrument from MSD and a procedure in which total p38 MAPK is captured on plates, and the relative amounts of phosphorylated protein were determined using phospho-specific antibody (MSD catalog #K15112D1). […] Suppression of p38 MAPK and c-Jun phosphorylation was dose-dependent, and could not be explained by a decline in total levels of these proteins. […] Proteolytic processing of ATF6 was also not inhibited by our hit compounds. […] Screens of other libraries (such as the NIH compound collection) may yield cytoprotective compounds with different mechanisms.
1) CSM14.1 cells were plated at a density of 2×10^5 cells/well at 6 well dish (Greiner Bio one) in DMEM containing 2% FBS and antibiotics.
2) After overnight incubation, cells were treated by DMSO (0.5%) or compounds (25 μM) for two hours, followed by TG (15 uM) treatment.
3) After two hours, cells were lyzed in 250 uL of lysis buffer and subjected to protein concentration decision, and to SDS PAGE/Western blotting using antibodies specific for phospho p38 MAPK (Cell signaling 9211), p38 MAPK (Santa Cruz-C20), phospho c-Jun (Cell signaling 9164), c-Jun (Santa Cruz-SC 1694), phospho eIF2α (Cell signaling 3597) and α-tubulin.
CSM 14.1 cells were cultured with DMSO or with 25 μM of hit compounds for two hours followed by treatment with thapsigargin (15 μM). Cell lysates were prepared and analyzed by SDS-PAGE/immunoblotting using antibodies specific for: c-Jun, phosphor-c-Jun (ser 73), eIF2a, phosphor-eIF2a (ser 51), p38 MAPK, phosphor-p38 MAPK (Thr180/Tyr182), ATF-6, CHOP and tubulin (loading control). ER stress-induced activation of C-Jun and p38 MAPK is suppressed by the 11 hit compounds.
CSM cells were treated with two compounds at increasing doses. Pre-incubation time, thapsigargin treatment, cell extract preparation and immunoblotting protocols were as described previously.

[2] = first assay, read-out: IC50 (μM), first value
[3] = one value given, read-out: IC50
[4] = second assay (value in bold), read-out: IC50 (μM), value from a second assay
[5] = Rattus norvegicus, one value given, read-out: IC50

| SMILES | IC50 (CSM14.1 cells; [2]) [µM] | IC50 (CSM14.1 cells; [3]) [µM] | IC50 (CSM14.1 cells; [4]) [µM] | other results |
| --- | --- | --- | --- | --- |
| CCOc1cc(C2Nc3ccccc3NC3=C2C(=O)CC(c2ccc(OC)cc2)C3)cc(Cl)c1O (centres unmarked) [Compound 6049448] | 24.8 ± 2.03 | 23.7 ± 0.642 | 23.7 ± 0.642 | Phosphorylation of ASK1 at ser 967 [1]: enhanced phosphorylation of ser 967 only; Phosphorylation of ASK1 at ser 83 and thr 845 [1]: not ser 83 or thr 845 |
| COc1ccc(C2CC(=O)C3=C(C2)Nc2ccccc2NC3c2cccc(O)c2)cc1 (centres unmarked) [Compound 6048163] |  | > 200 |  | Activity against thapsigargin-induced cell death / cell protection (CSM14.1 cells; cell death assay used for primary screening): inactive in cell protection; also recorded: not potent as an inhibitor of cell death; Thapsigargin-induced phosphorylation of c-Jun (phospho-c-Jun): fail to suppress |
| COc1ccc(C2CC(=O)C3=C(C2)Nc2ccccc2NC3c2cc(C)ccc2C)cc1 (centres unmarked) [Compound 6238767] | 13.3 ± 1.17 | 12.5 ± 0.177 | 12.5 ± 0.177 | Phosphorylation of ASK1 at ser 967 [1]: enhanced phosphorylation of ser 967 only; Phosphorylation of ASK1 at ser 83 and thr 845 [1]: not ser 83 or thr 845 |
| COc1ccc(C2CC(=O)C3=C(C2)Nc2ccccc2NC3c2ccccc2OC(C)C)cc1 (centres unmarked) [Compound 6043556, 11-(2-isopropoxyphenyl)-3-(4-methoxyphenyl)-2,3,4,5,10,11-hexahydro-1H-dibenzo[b,e][1,4]diazepin-1-one] |  |  |  | IC50 (CSM14.1 cells; [5]): 24 ± 2.31 µM |
| COc1ccc(OC)c(CN2CCN(C(=O)c3ccc(-c4ccccc4)cc3)CC2)c1 [Compound 5990137] | 17.5 ± 0.675 |  | 13.9 ± 1.06 |  |
| CCn1c2ccccc2c2cc(CN3CCN(C(=O)c4ccc(OC)c(OC)c4)CC3)ccc21 [Compound 6033352] | 13.4 ± 0.248 |  | 13.8 ± 0.548 |  |
| O=C1CC(c2ccccc2)CC2=C1C(c1ccccc1Cl)Nc1ccccc1N2 (centres unmarked) [Compound 6065973] |  | > 200 |  |  |
| COc1ccc(C2CC(=O)C3=C(C2)Nc2ccccc2NC3c2ccc(F)c(F)c2)cc1 (centres unmarked) [Compound 6079090, 11-(3,4-difluorophenyl)-3-(4-methoxyphenyl)-2,3,4,5,10,11-hexahydro-1H-dibenzo[b,e][1,4]diazepin-1-one] |  |  |  | IC50 (CSM14.1 cells; [5]): 21.7 ± 0.247 µM |
